Experimental data from patent US9629826B2, “CAI-based systems and methods for the localized treatment of uveitis” (Gen Pharma Holdings, LLC., priority 2014, dated 2017).
“Also recorded” adds a separate entry of the source.

Assays:
[1] = in vivo; cited from earlier work
[2] = tested on: neovascularization; assay: Contemplated clinical cases: intravitreal or periocular CAI against neovascularization; format: in vivo; conditions: contemplated cases: 50 mcg intravitreal (Example 9); 200 mcg intravitreal then periocular sustained-release (Example 10)
Text: The following contemplated clinical cases of angiogenesis are presented as examples of methods of treatment and not as limitations. Other illustrations of treating systemic or localized angiogenesis are not presented, since the principles involved are similar, and will be apparent to the skilled reader based upon review of an individual's clinical manifestation and the preferred embodiments of the inventive compositions.
Person with Proliferative Diabetic Retinopathy and threshold high-risk characteristics presents with Vitreous Hemorrhage. The patient also has atrial fibrillation and ischemic cardiomyopathy that requires oral Coumadin. The patient is intolerant to topical Panretinal Photocoagulation. The INR measured at just less than 2. […] The patients Vitreous Hemorrhage slowly resolves and the patient is able to taper their Coumadin so that Panretinal Photocoagulation can be placed with retrobulbar anesthesia. Alternately, the patient remains on Coumadin and then is treated with a patch periocular insert of CAI to diminish the neovascularization.
Person with a two-week history of central scotoma. They developed a large disciform scar in the contralateral eye after several sessions of photodynamic therapy. On exam and fluorescein angiography is predominately classic subfoveal membrane is noted. […]

[3] = systemic CAI; cited from earlier work
[4] = cited from earlier work
[5] = cited from earlier work; remark: listed apart in the source

| Compound | physiological tissue concentrations [1] | neovascular regression [2] | plasma concentrations associated with unacceptable toxicity [3] | serious side effect associated with clinical use ([4]; systemic administration, two cases described) | toxic effects observed in clinical studies ([4]; systemic oral dosage regimens) | concentration detected in the vitreous cavity ([5]; single 5 mg peribulbar injection in humans) [ng/mL] | delivery to the subretinal space, higher following subconjunctival injection ([5]; subconjunctival injection) [fold] |
| --- | --- | --- | --- | --- | --- | --- | --- |
| NC(=O)c1nnn(Cc2cc(Cl)c(C(=O)c3ccc(Cl)cc3)c(Cl)c2)c1N [CAI] | 1-10 μM | some neovascular regression; also recorded: neovascular regression occurs | above 100 micromolar | loss of vision | cerebellar ataxia, peripheral neuropathy and exacerbation of depression | – | – |
| C[C@@H]1C[C@H]2[C@@H]3CCC4=CC(=O)C=C[C@]4(C)[C@@]3(F)[C@@H](O)C[C@]2(C)[C@@]1(O)C(=O)CO [Dexamethasone] | – | – | – | – | – | 13 | 10 |
